Legend:
Set-up in all cases: dose 25 mg/kg
Plasma [1] = assay: Metabolic stability in Wistar rat plasma assessed as alpha-lapachone level at 25 mg/kg after 12 hrs; assay type: ADME, organism-based; details: in vivo
Plasma [2] = assay: Metabolic stability in Wistar rat plasma assessed as dehydro-alpha-lapachone level at 25 mg/kg after 1.5 hrs; assay type: ADME, organism-based; details: in vivo
Plasma [3] = assay: Metabolic stability in Wistar rat plasma assessed as alpha-lapachone level at 25 mg/kg after 1.5 hrs; assay type: ADME, organism-based; details: in vivo
Plasma [4] = assay: Metabolic stability in Wistar rat plasma assessed as alpha-lapachone level at 25 mg/kg after 3 hrs; assay type: ADME, organism-based; details: in vivo
[5] = Plasma concentration in Wistar rat at 25 mg/kg after 12 hrs; assay type: ADME, organism-based
[6] = Plasma concentration in Wistar rat at 25 mg/kg after 1.5 hrs; assay type: ADME, organism-based
Rattus norvegicus = assay: Toxicity in Wistar rat at 25 mg/kg; assay type: organism-based; details: in vivo

CC(C)=CCC1=C(O)C(=O)c2ccccc2C1=O [LAPACHOL] gave a Drug metabolism (Plasma [1]) of 0.7 µg/mL, a Drug metabolism (Plasma [2]) of 0.6 µg/mL and a Drug metabolism (Plasma [3]) of 1.4 µg/mL. For the same compound, the Drug metabolism (Plasma [4]) was 6 µg/mL, the concentration at 12 h [5] was 2000 ng/mL and the concentration at 1.5 h [6] was 37000 ng/mL. For the same compound, the Activity (Rattus norvegicus) was “Non-toxic”.

From ChEMBL document CHEMBL2203142, “Biomimetic in vitro oxidation of lapachol: a model to predict and analyse the in vivo phase I metabolism of bioactive compounds” (Eur J Med Chem, 2012)
